Values joined by “and” are separate entries in the source; they are usually repeats but may differ in a detail not shown here. Equal values may be shown once.
Legend:
ICR mice [1] = test: Straub tail behaviour (indicator of CNS activity) in writhing-study mice; details: any doses (1 to 128 mg/kg IP)
ICR mice [2] = test: Phenylquinone-induced writhing model in mice (writhes counted in following 5-10 minute period); assay type: in vivo; details: for No. of Writhings, Individual: individual mice; for % Inhibition: relative to vehicle group
Procedure: (§1) Testing on compound KRS-6-48 was carried out under contract by MDS Services—Taiwan Ltd. KRS-6-48 was evaluated for possible analgesic activity in the phenylquinone-induced writhing model in mice (Siegmund et al, 1957). A serial 2-fold dosage variance was used in the test, from 128 mg/kg to 1 mg/kg (8 doses in total). Groups of 3 male or female ICR mice weighing 22±2 g were employed. Variant doses (1, 2, 4, 8, 16, 32, 64 and 128 mg/kg) of test substances were administered intraperitoneally (IP). A vehicle of 2% Tween 80 in 0.9% NaCl was used for the intraperitoneal injection. The control group received vehicle alone. […] A reduction in the number of writhes by 50 percent or more (≧50%) relative to the vehicle-treated group indicated possible analgesic activity.
Testing on compounds KRS-6-41, KRS-6-51, and KRS-6-71 was also carried out under contract by MDS Services—Taiwan Ltd. The study was designed to evaluate the effects of the compounds as analgesics in the phenylquinone-induced writhing assay described in detail in Example 10 (Siegmund et al, 1957).
as §1, with “In each case, a” for “Testing on compound KRS-6-48 was carried out under contract by MDS Services—Taiwan Ltd. KRS-6-48 was evaluated for possible analgesic activity in the phenylquinone-induced writhing model in mice (Siegmund et al, 1957). A”

Structure (SMILES): CCC(=Nc1ccccc1CC)NCCCN1CC[C@]23c4c5ccc(O)c4O[C@H]2[C@@H](O)C=CC3[C@H]1C5 (stereo partly drawn) [KRS-6-71, (5α,6α)-7,8-didehydro-4,5-epoxy-17-((N-(2-ethylphenyl)propionamidino)-propyl)morphinan, 3,6-diol]
- Straub tail behaviour (ICR mice [1]): None of the test animals exhibited Straub tail behaviour
- No. of Writhings, Average (ICR mice [2]; 1 mg/kg IP): 18
- No. of Writhings, Individual (ICR mice [2]; 1 mg/kg IP): 24 and 13 and 18
- % Inhibition (ICR mice [2]; 1 mg/kg IP): 22%
- No. of Writhings, Average (ICR mice [2]; 2 mg/kg IP): 14
- No. of Writhings, Individual (ICR mice [2]; 2 mg/kg IP): 2 and 12 and 18
- % Inhibition (ICR mice [2]; 2 mg/kg IP): 39%
- No. of Writhings, Average (ICR mice [2]; 4 mg/kg IP): 11
- No. of Writhings, Individual (ICR mice [2]; 4 mg/kg IP): 16 (2×) and 2
- % Inhibition (ICR mice [2]; 4 mg/kg IP): 52%
- No. of Writhings, Average (ICR mice [2]; 8 mg/kg IP): 11
- No. of Writhings, Individual (ICR mice [2]; 8 mg/kg IP): 0 and 18 and 15
- % Inhibition (ICR mice [2]; 8 mg/kg IP): 52%
- No. of Writhings, Average (ICR mice [2]; 16 mg/kg IP): 7
- No. of Writhings, Individual (ICR mice [2]; 16 mg/kg IP): 13 and 0 and 8
- % Inhibition (ICR mice [2]; 16 mg/kg IP): 70%
- No. of Writhings, Average (ICR mice [2]; 32 mg/kg IP): 7
- No. of Writhings, Individual (ICR mice [2]; 32 mg/kg IP): 6 and 0 and 15
- % Inhibition (ICR mice [2]; 32 mg/kg IP): 70%
- No. of Writhings, Average (ICR mice [2]; 64 mg/kg IP): 1
- No. of Writhings, Individual (ICR mice [2]; 64 mg/kg IP): 0 (2×) and 3
- % Inhibition (ICR mice [2]; 64 mg/kg IP): 96%
- No. of Writhings, Average (ICR mice [2]; 128 mg/kg IP): 0
- No. of Writhings, Individual (ICR mice [2]; 128 mg/kg IP): 0
- % Inhibition (ICR mice [2]; 128 mg/kg IP): 100%
- melting point: 58 to 59 °C

— patent US20060111381A1, “Amidine compounds” (priority 2002, published 2006)
